Data from article PMC7730452, “Citrullination-Resistant LL-37 Is a Potent Antimicrobial Agent in the Inflammatory Environment High in Arginine Deiminase Activity” (International Journal of Molecular Sciences, 2020).
Converted amounts (≈) assume the structure as drawn. Read-outs that look alike come from different tables or passages of the source.

Key:
[1] = target: recombinant human PAD4 (Homo sapiens, UniProt Q9UM07)
Protocol: PAD4 activity was determined on N-α-benzoyl-L-arginine ethyl ester hydrochloride (BAEE) substrate with colorimetric assay [33].
Citrullination was terminated by snap-freezing the samples.
Reaction was terminated by addition of TFA (final concentration 0.1%) (Sigma) and samples were analyzed via HPLC. Separation was achieved on a reverse-phase column Aeris XB-C18, 3.6 μm, 4.6/150 (Phenomenex) connected to ÄKTAmicro (GE Healthcare). Peptides were eluted in the gradient of Phase A (0.1% TFA in water) and Phase B (80% acetonitrile, 0.08% TFA in water) and monitored at 215 nm.

[2] = system: E. coli; assay type: cell-based, Escherichia coli ATCC 25922
Protocol: (§1) Escherichia coli ATCC 25922 and Pseudomonas aeruginosa (clinical isolate) were inoculated from stocks into 20 mL LB Broth Lennox, while Staphylococcus aureus Δaur (8325-4 Δaur) into 20 mL TSB and grown overnight at 37 °C under constant rotation (180 rpm) to a mid-logarithmic growth phase. Then they were centrifuged at 5000× g for 5 min, washed in PBS, and resuspended in PBS to the desired OD (600 nm).
(§2) Mueller-Hinton broth (MHB, Sigma-Aldrich) was used as the working medium for all bacterial strains. Briefly, inoculum was prepared from freshly grown cultures of bacteria being at their exponential phase of growth. Each well of 96-well plates containing 100 μL of serially diluted peptides in PBS at desired concentration was inoculated with 100 μL of 1 × 10^5 (CFU) mL^−1 of bacterial suspensions. Then, plates were incubated overnight at 37 °C and absorbance was read at 590 nm in a Flex Station 3 multi-mode microplate reader (Molecular Devices). An absorbance reading in wells without a peptide representing unrestrained bacterial growth was taken as positive control (100% bacterial survival). Readings in wells without bacteria were taken as negative controls. All measurements were run in triplicates.

[3] = target: neutrophil elastase (Homo sapiens, UniProt P08246); details: 5 μg peptide, 0.05 μg protease, PBS, 25 μL, 37 °C, 1 h and 18 h; SDS-PAGE, Coomassie
Protocol: (§3) After incubation samples were immediately frozen at −80 °C. Samples were separated on SDS-PAGE under denaturing condition in 4–16% gels. After separation, the gels underwent colloid Coomassie staining.

[4] = target: cathepsin G (Homo sapiens, UniProt P08311)
Protocol: as §3

[5] = system: P. aeruginosa; assay type: cell-based, Pseudomonas aeruginosa (clinical isolate)
Protocol: as §1, §2

[6] = target: V8 protease (Staphylococcus aureus, UniProt P0C1U8); experiment: Degradation by protease, SDS-PAGE; details: 5 μg peptide, 0.05 μg protease, PBS, 25 μL, 37 °C, 1 h and 18 h, Coomassie
Protocol: as §3

[7] = target: aureolysin (Staphylococcus aureus, UniProt P81177); experiment: Degradation by protease, SDS-PAGE; details: 5 μg peptide, 0.05 μg protease, PBS, 25 μL, 37 °C, 1 h and 18 h, Coomassie
Protocol: as §3

[8] = cited from earlier work
Excerpt: The slower hydrolysis rate of homoarginine-containing peptides compared with their arginine-containing counterparts depend ...

[9] = system: venous leg ulcers; details: patients with venous leg ulcers; cited from earlier work
Excerpt: Current research is partly focused on peptide-based compounds.

[10] = system: HaCaT cells; experiment: LDH release cytotoxicity assay; assay type: cell-based, human; details: 24 h, n = 2
Protocol: The cell line of human immortalized keratinocytes (HaCaT) was obtained from American Type Culture Collection (ATCC, Manassas, VA, USA) and cultured in DMEM (Gibco, Life Technologies, Paisley, UK) supplemented with 10% heat-inactivated fetal bovine serum (FBS) and PEST (100 U/mL penicillin and 100 U/mL streptomycin) at 37 °C in humidified 5% CO2 atmosphere. Cells were passaged every 4–5 days. To assess the effect of peptides on the integrity of the plasma membrane, the LDH release assay was performed using the CytoTox96 nonradioactive cytotoxicity assay kit (Promega, Madison, WI, USA) according to the manufacturer’s instructions. Cytotoxicity was calculated with the formula: % cytotoxicity = 100 × (experimental LDH release/maximum LDH release), where maximum LDH release occurs after the addition of lysis solution (Triton X-100). Relative amounts of LDH release were measured (absorbance at 490 nm) using FlexStation 3 Multimode Microplate Reader (Molecular Device, Wokingham, UK). All assays were performed in duplicate.

Sequence of aureolysin (P81177 209-509): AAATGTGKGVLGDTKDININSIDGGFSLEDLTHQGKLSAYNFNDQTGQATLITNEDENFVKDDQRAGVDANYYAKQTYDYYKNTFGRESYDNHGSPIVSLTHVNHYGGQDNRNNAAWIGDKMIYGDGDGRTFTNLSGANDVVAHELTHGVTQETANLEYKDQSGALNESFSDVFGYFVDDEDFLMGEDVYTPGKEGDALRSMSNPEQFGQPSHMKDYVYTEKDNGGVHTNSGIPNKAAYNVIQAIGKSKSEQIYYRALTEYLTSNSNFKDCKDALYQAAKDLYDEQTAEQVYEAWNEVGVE
Sequence of V8 protease (P0C1U8 69-336): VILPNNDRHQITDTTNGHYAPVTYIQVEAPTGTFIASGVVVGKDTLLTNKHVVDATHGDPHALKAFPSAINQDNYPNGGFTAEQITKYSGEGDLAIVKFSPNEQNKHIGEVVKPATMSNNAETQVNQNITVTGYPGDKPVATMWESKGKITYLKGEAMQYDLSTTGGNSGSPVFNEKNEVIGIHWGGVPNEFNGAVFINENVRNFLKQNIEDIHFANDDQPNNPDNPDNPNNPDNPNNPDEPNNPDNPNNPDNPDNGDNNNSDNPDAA
Sequence of cathepsin G (P08311 21-255): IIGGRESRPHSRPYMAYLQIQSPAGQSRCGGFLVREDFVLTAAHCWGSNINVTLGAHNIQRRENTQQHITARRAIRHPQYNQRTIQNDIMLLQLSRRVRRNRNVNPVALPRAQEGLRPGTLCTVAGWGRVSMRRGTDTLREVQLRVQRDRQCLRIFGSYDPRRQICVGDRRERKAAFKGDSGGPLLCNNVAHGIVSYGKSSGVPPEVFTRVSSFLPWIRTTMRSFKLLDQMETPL
Sequence of neutrophil elastase (P08246 30-267): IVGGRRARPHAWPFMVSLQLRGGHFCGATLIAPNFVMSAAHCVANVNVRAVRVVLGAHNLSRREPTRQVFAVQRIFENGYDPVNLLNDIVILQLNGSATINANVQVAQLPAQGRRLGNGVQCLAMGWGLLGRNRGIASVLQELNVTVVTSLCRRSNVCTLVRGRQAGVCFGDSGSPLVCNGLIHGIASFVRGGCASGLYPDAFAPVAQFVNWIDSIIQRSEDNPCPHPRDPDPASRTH
Sequence of recombinant human PAD4 (Q9UM07 whole entry): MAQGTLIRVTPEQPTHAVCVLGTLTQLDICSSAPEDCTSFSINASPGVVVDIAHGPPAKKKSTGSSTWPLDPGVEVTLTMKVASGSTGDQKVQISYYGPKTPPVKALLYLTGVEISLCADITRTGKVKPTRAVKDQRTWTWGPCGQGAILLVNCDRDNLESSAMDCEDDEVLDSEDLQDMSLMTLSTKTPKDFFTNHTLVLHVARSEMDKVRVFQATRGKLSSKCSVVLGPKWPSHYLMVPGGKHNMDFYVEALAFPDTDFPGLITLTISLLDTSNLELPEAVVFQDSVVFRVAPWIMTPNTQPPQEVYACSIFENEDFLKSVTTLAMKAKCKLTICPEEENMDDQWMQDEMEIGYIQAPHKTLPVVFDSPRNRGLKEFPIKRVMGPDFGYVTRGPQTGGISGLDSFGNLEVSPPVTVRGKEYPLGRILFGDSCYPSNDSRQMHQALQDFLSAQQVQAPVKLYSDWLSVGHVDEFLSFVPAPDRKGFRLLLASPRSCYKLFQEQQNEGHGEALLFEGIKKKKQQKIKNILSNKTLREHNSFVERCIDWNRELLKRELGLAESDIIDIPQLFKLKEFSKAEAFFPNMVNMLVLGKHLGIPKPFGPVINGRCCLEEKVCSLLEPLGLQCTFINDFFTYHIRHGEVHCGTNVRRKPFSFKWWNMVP

| Compound | Modification (citrullination) by PAD4 [1] | MIC (minimal inhibitory concentration) [2] [µg/mL] | Degradation by neutrophil elastase [3] | Degradation by cathepsin G [4] | MIC (minimal inhibitory concentration) [5] [µg/mL] | Degradation by V8 protease [6] | Degradation by aureolysin [7] | Degradation in NETs [8] | Degradation by cathepsin G ([4]; 5 μg peptide, 0.5 μg protease, PBS, 25 μL, 37 °C, 1 h and 18 h, SDS-PAGE, Coomassie) | Safety and tolerability [9] | Toxicity, LDH release ([10]; peptide 10 μg/mL) | Toxicity, LDH release ([10]; peptide 25 μg/mL) | Toxicity, LDH release ([10]; peptide 75 μg/mL) |
| --- | --- | --- | --- | --- | --- | --- | --- | --- | --- | --- | --- | --- | --- |
| CC[C@H](C)[C@H](NC(=O)[C@H](CCCCN)NC(=O)[C@H](CCC(=O)O)NC(=O)[C@H](CCCCN)NC(=O)[C@H](CO)NC(=O)[C@H](CCCCN)NC(=O)[C@H](CCCCNC(=N)N)NC(=O)[C@H](Cc1ccccc1)NC(=O)[C@H](Cc1ccccc1)NC(=O)[C@H](CC(=O)O)NC(=O)CNC(=O)[C@H](CC(C)C)NC(=O)[C@@H](N)CC(C)C)C(=O)NCC(=O)N[C@@H](CCCCN)C(=O)N[C@@H](CCC(=O)O)C(=O)N[C@@H](Cc1ccccc1)C(=O)N[C@@H](CCCCN)C(=O)N[C@@H](CCCCNC(=N)N)C(=O)N[C@H](C(=O)N[C@H](C(=O)N[C@@H](CCC(N)=O)C(=O)N[C@@H](CCCCNC(=N)N)C(=O)N[C@H](C(=O)N[C@@H](CCCCN)C(=O)N[C@@H](CC(=O)O)C(=O)N[C@@H](Cc1ccccc1)C(=O)N[C@@H](CC(C)C)C(=O)N[C@@H](CCCCNC(=N)N)C(=O)N[C@@H](CC(N)=O)C(=O)N[C@@H](CC(C)C)C(=O)N[C@H](C(=O)N1CCC[C@H]1C(=O)N[C@@H](CCCCNC(=N)N)C(=O)N[C@H](C(=O)N[C@@H](CCC(=O)O)C(=O)N[C@@H](CO)C(=O)O)[C@@H](C)O)C(C)C)[C@@H](C)CC)C(C)C)[C@@H](C)CC [hArg-LL-37] | did not evidently modify | 50 (≈ 11 µM) | degraded more rapidly by neutrophil elastase than LL-37 | did not differ | 50 (≈ 11 µM) | similarly sensitive | similarly sensitive |  |  |  |  |  |  |
| CC[C@H](C)[C@H](NC(=O)[C@H](CCCCN)NC(=O)[C@H](CCC(=O)O)NC(=O)[C@H](CCCCN)NC(=O)[C@H](CO)NC(=O)[C@H](CCCCN)NC(=O)[C@H](CCCNC(=N)N)NC(=O)[C@H](Cc1ccccc1)NC(=O)[C@H](Cc1ccccc1)NC(=O)[C@H](CC(=O)O)NC(=O)CNC(=O)[C@H](CC(C)C)NC(=O)[C@@H](N)CC(C)C)C(=O)NCC(=O)N[C@@H](CCCCN)C(=O)N[C@@H](CCC(=O)O)C(=O)N[C@@H](Cc1ccccc1)C(=O)N[C@@H](CCCCN)C(=O)N[C@@H](CCCNC(=N)N)C(=O)N[C@H](C(=O)N[C@H](C(=O)N[C@@H](CCC(N)=O)C(=O)N[C@@H](CCCNC(=N)N)C(=O)N[C@H](C(=O)N[C@@H](CCCCN)C(=O)N[C@@H](CC(=O)O)C(=O)N[C@@H](Cc1ccccc1)C(=O)N[C@@H](CC(C)C)C(=O)N[C@@H](CCCNC(=N)N)C(=O)N[C@@H](CC(N)=O)C(=O)N[C@@H](CC(C)C)C(=O)N[C@H](C(=O)N1CCC[C@H]1C(=O)N[C@@H](CCCNC(=N)N)C(=O)N[C@H](C(=O)N[C@@H](CCC(=O)O)C(=O)N[C@@H](CO)C(=O)O)[C@@H](C)O)C(C)C)[C@@H](C)CC)C(C)C)[C@@H](C)CC [LL-37] |  |  |  |  |  | similarly sensitive | similarly sensitive | gradually degraded | did not differ | no safety or tolerability concerns were noted | did not compromise the membrane permeability | did not compromise the membrane permeability | low, but still significant, release of LDH |
